Patent US20080274202A1, “Compositions and Method for Brain Specific Targeted Delivery of Therapeutic Agents” (priority 2005, published 2008)

Tested on: HOTCs
Experiment: HOTC maintenance in serum-free media with antibiotic
Type: cell-based
Conditions: by 21 DIV, in SFM
Protocol: HOTCs were prepared and maintained by initial incubation in serum-based media followed by transfer to a serum-free media (SFM) at 4 days in vitro (DIV). The transfer from serum-containing medium to SFM prevented neuronal loss from occurring after two weeks of culture (stability was measured by neuron-specific nuclear protein (NeuN)-based western blots), and prevented glial activation in the HOTCs. SFM contained Neurobasal medium ((96%) from Invitrogen) supplemented to 42 mM glucose, 1 mM glutamine (from Sigma), 2% B27 supplement, 10 μg/mL gentamicin and […] Fungizone (from Invitrogen). […] The SFM was changed twice a week and the HOTCs were incubated at 36° C. with 5% CO2-balance air. Slices were maintained to 21 DIV to allow cultures to mature, and used from 21-30 DIV.

penicillin
CA3 field potentials from dentate gyrus stimulation: no CA3 field potentials were seen
pyramidal cell survival in HOTCs: most pyramidal cells were dead
